Like-named read-outs stand apart in the source and are kept apart here.
Experiments:
Type in all cases: in vivo
[1] = tested on: Alopecurus myosuroides (ALOMY); test: Test 1 glasshouse assay, post-emergence herbicidal activity; conditions: 312 h, after 13 days, read-out: Percentage phytotoxicity ALOMY
How it was run: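 Plants sprayed 8 days after sowing with active ingredient in acetone/water (50:50) containing 0.5% Tween 20, grown in glasshouse at 24/16°C day/night, 14 h light, 65% humidity. Phytotoxicity scored visually after 13 days as percentage damage (100% = total damage; 0% = none).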

[2] = tested on: Amaranthus retroflexus (AMARE); test: as above; conditions: 312 h, post-emergence (Example 1B Table 1), after 13 days, read-out: Percentage phytotoxicity AMARE
How it was run: (§1)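 Plants sprayed post-emergence after 8 days' growth with active ingredient in acetone/water (50:50) plus 0.5% Tween 20; glasshouse at 24/16° C day/night, 14 h light, 65% humidity. Visual percentage phytotoxicity scored 13 days later (100% = total damage, 0% = none).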

Setaria faberi (SETFA) = test: as above; conditions: 312 h, post-emergence (Example 1B Table 1), after 13 days, read-out: Percentage phytotoxicity SETFA
How it was run: as §1

[3] = tested on: Zea mays (ZEAMX, corn/maize); test: as above; conditions: 312 h, post-emergence (Example 1B Table 1), after 13 days, read-out: Percentage phytotoxicity ZEAMX
How it was run: as §1

[4] = tested on: Abutilon theophrasti (ABUTH); test: as above; conditions: 312 h, post-emergence (Example 1B Table 1), after 13 days, read-out: Percentage phytotoxicity ABUTH
How it was run: as §1

[5] = tested on: Glycine max (GLXMA, soybean) cultivar Nikko; test: Biological Example 3 glasshouse assay, post-emergence, various adjuvant systems; conditions: 120 g/ha, crop
Method: Post-emergence foliar spray application, 200 L/ha, usually one or two replicates for the weeds (depending on application rate), and two replicates for soybean.
Standard warm conditions (tropical), in glasshouse. Specifically, the glasshouse bay conditions are 24° C./18° C. day/night; 16/8 hours light/dark; 65% humidity.
The herbicidal application takes place at the following growth stages for plants which include inter alia one or more of the following plants (usually the herbicidal application takes place on at least the following plants: DIGSA, ELEIN, SETFA, ZEAMX, GLXMA Nikko, and GLXMA TMG133, and often also either BRADC or BRAPP):
Glycine max (GLXMA, soybean) cultivar “Nikko”—growth stage: 1st trifoliate
Each test compound is applied with one of the following adjuvant systems (all percentages are final concentrations in the aqueous spray mixture):
Adjuvant system 2: 0.5% v/v Hexamoll™ DINCH**, 1.0% v/v AMS (ammonium sulphate) and 12.5% v/v IPA (isopropyl alcohol).
Adjuvant system 3: 0.5% v/v tris-(2-ethylhexyl)phosphate (“TEHP”), 1.0% v/v AMS (ammonium sulphate) and 12.5% v/v IPA (isopropyl alcohol).
Seeds of the weed (including volunteer) plants, typically including inter alia Digitaria sanguinalis (DIGSA), Eleusine indica (ELEIN), Setaria faberi (SETFA), Zea mays (ZEAMX, corn), and sometimes also [either Brachiaria decumbens (BRADC) or Brachiaria platyphylla (BRAPP)], are sown in seed trays (troughs) containing clay loam soil (pH 7.0, 2.2% organic matter, “Trough Mix A”); and soybean seed is sown in pots containing the same soil with 3 soybean seedlings per pot. The plants are sprayed with the test herbicide when they reach the growth stages mentioned above.
The test herbicidal solutions are prepared by mixing the appropriate aliquots of the test substance(s) and one of the adjuvant systems indicated above *** in deionised water to give the desired treatment concentration.
The herbicidal application is made as a foliar spray, using a tracksprayer. Following the herbicidal application, the plants are watered twice per day for the duration of the test.
A visual assessment of the % herbicidal damage is made 7 and 14 Days After herbicide Application (DAA) (or, in a minority of cases, 7 and 15 DAA), and the results are recorded as % visual herbicidal damage where 0%=no damage to plants and 100%=plant totally killed.
Compounds A2 and A7 were tested using the 0.5% v/v Hexamoll™ DINCH™+1.0% v/v AMS+12.5% v/v IPA adjuvant system. Compounds A11, A12, A14, A20 and A21 were tested using the 0.5% v/v tris-(2-ethylhexyl)phosphate (“TEHP”)+1.0% v/v AMS+12.5% v/v IPA adjuvant system.
The percentages of herbicidal damage/plant control, at 14 Days After herbicide Application (DAA) (or, in some cases, at 15 DAA), for the Compounds tested and for some of the plants tested, were in the following percentage ranges. For the tested compounds, the phytotoxicity results shown herein are generally the average of 2 or 3 repetitions (for the grassy weeds including corn) or the average of 2 repetitions (for soybean for most of the tested compounds). However, for Compound A2 on soybean there was 1 repetion only.

Avena fatua (AVEFA) = test: Test 1 glasshouse assay, post-emergence herbicidal activity; conditions: 312 h, post-emergence (Example 1B Table 2), after 13 days, read-out: Percentage phytotoxicity AVEFA
How it was run: (§2)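 Post-emergence: plants sprayed after 8 days' growth in a glasshouse (24/16 °C day/night, 14 h light, 65% humidity) with compound in acetone/water 50:50 containing 0.5% Tween 20. Phytotoxicity was scored visually 13 days later as percent damage (0 = none, 100 = total).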

[6] = tested on: Triticum aestivum (TRZAW, winter wheat); test: as above; conditions: 312 h, post-emergence (Example 1B Table 2), after 13 days, crop plant, read-out: Percentage phytotoxicity TRZAW
How it was run: as §2

Lolium perenne (LOLPE) = test: as above; conditions: 312 h, post-emergence (Example 1B Table 2), after 13 days, read-out: Percentage phytotoxicity LOLPE
How it was run: as §2

[7] = post-emergence (Example 1B Table 1)
[8] = 14 or 15 DAA, adjuvant 0.5% v/v TEHP + 1.0% v/v AMS + 12.5% v/v IPA
[9] = post-emergence (Example 1B Table 2)
[10] = 14 DAA, adjuvant 0.5% v/v Hexamoll DINCH + 1.0% v/v AMS + 12.5% v/v IPA

Compound	pest or weed control at 30 g/ha [1, 7] [%]	pest or weed control at 250 g/ha [1, 7] [%]	pest or weed control at 30 g/ha [2] [%]	pest or weed control at 250 g/ha [2] [%]	pest or weed control at 30 g/ha (Setaria faberi (SETFA)) [%]	pest or weed control at 250 g/ha (Setaria faberi (SETFA)) [%]	pest or weed control at 30 g/ha [3] [%]	pest or weed control at 250 g/ha [3] [%]	pest or weed control at 30 g/ha [4] [%]	pest or weed control at 250 g/ha [4] [%]	pest or weed control at 250 g/ha [1, 9] [%]	pest or weed control at 250 g/ha (Avena fatua (AVEFA)) [%]	plant injury at 250 g/ha [6] [%]	pest or weed control at 250 g/ha (Lolium perenne (LOLPE)) [%]	further results
C#CCC1CC(=O)C(c2c(F)cc(-c3ccc(F)cc3F)cc2OC)C1=O (stereo not drawn) [Compound A21]	40	70	10	30	80	100	100	100	0	40	–	–	–	–	percentage phytotoxicity on Glycine max cultivar Nikko [5, 8]: 5%
C#CCC1CC(=O)C(c2c(F)cc(-c3ccc(Cl)cc3)cc2OC)C1=O (stereo not drawn) [Compound A14]	–	90	–	60	–	100	–	100	–	0	90	100	70	80	pest or weed control at 62.5 g/ha [1, 7]: 70%; pest or weed control at 62.5 g/ha [2]: 50%; pest or weed control at 62.5 g/ha (Setaria faberi (SETFA)): 90%; pest or weed control at 62.5 g/ha [3]: 100%; pest or weed control at 62.5 g/ha [4]: 0%; percentage phytotoxicity on Glycine max cultivar Nikko ([5]; 15 DAA, adjuvant 0.5% v/v TEHP + 1.0% v/v AMS + 12.5% v/v IPA): 5%
C#CCC1CC(=O)C(c2c(C)cc(-c3ccc(Cl)cn3)cc2C)C1=O (stereo not drawn) [Compound A2]	–	90	–	70	–	100	–	100	–	80	100	100	90	100	pest or weed control at 62.5 g/ha [1, 7]: 90%; pest or weed control at 62.5 g/ha [1, 9]: 70%; pest or weed control at 62.5 g/ha (Avena fatua (AVEFA)): 80%; plant injury at 62.5 g/ha [6]: 70%; pest or weed control at 62.5 g/ha (Lolium perenne (LOLPE)): 70%; pest or weed control at 62.5 g/ha [2]: 70%; pest or weed control at 62.5 g/ha (Setaria faberi (SETFA)): 100%; pest or weed control at 62.5 g/ha [3]: 100%; pest or weed control at 62.5 g/ha [4]: 70%; percentage phytotoxicity on Glycine max cultivar Nikko [5, 10]: 10%
C#CCC1CC(=O)C(c2c(Cl)cc(-c3ccc(F)cc3)cc2OC)C1=O (stereo not drawn) [Compound A7]	70	100	20	80	100	100	100	100	30	80	–	–	–	–	percentage phytotoxicity on Glycine max cultivar Nikko [5, 10]: 2.5%
C#CCC1CC(=O)C(c2c(F)cc(-c3ccc(F)cc3)cc2OC)C1=O (stereo not drawn) [Compound A20, 2-[2-fluoro-4-(4-fluorophenyl)-6-methoxyphenyl]-4-prop-2-ynylcyclopentane-1,3-dione]	50	100	0	70	80	100	90	100	0	60	–	–	–	–	percentage phytotoxicity on Glycine max cultivar Nikko [5, 8]: 2%
C#CCC1CC(=O)C(c2c(F)cc(-c3ccc(Cl)cn3)cc2Cl)C1=O (stereo not drawn) [Compound A8]	100	100	80	90	100	100	100	100	70	80	100	100	80	100	pest or weed control at 62.5 g/ha [1, 9]: 80%; pest or weed control at 62.5 g/ha (Avena fatua (AVEFA)): 90%; plant injury at 62.5 g/ha [6]: 80%; pest or weed control at 62.5 g/ha (Lolium perenne (LOLPE)): 70%
C#CCC1CC(=O)C(c2c(Cl)cc(-c3ccc(Cl)cc3)cc2OC)C1=O (stereo not drawn) [Compound A11, 2-[2-chloro-4-(4-chlorophenyl)-6-methoxyphenyl]-4-prop-2-ynylcyclopentane-1,3-dione]	70	100	50	80	100	100	100	100	30	80	–	–	–	–	percentage phytotoxicity on Glycine max cultivar Nikko ([5]; 14 DAA, adjuvant 0.5% v/v TEHP + 1.0% v/v AMS + 12.5% v/v IPA): 15%

From patent US10375956B2, “Herbicidally active 2-(substituted-phenyl)-cyclopentane-1,3-dione compounds and derivatives thereof” (Syngenta Limited, priority 2013, dated 2019)
